System: primary human dermal fibroblasts
Assay: PDGF-BB stimulated proliferation of dermal fibroblasts (MTT assay)
Type: cell-based
Details: MTT 72 hours, FIG. 3
Protocol: Primary human hepatic stellate cells or primary human dermal fibroblasts (HDF), both purchased from Sciencell, were seeded into 96-well plates with complete growth media (Stellate Cell Medium or Fibroblast Cell Medium) for 24 hours, followed by culturing overnight in the culture media free of serum and growth factors, and then the culture media were replaced by fresh medium containing platelet-derived growth factor (PDGF-BB) and the compounds to be tested at various concentrations, and the cells was cultured for another 72 hours. Measurement was performed using a conventional MTT assay kit (Promega). […] The inhibition of cell proliferation by the compounds was determined by comparing the absorbance value of the control group (FIGS. 2, 3).

O=C(c1ccc(F)cc1)c1ccccc1N[C@@H](Cc1ccc(OCCn2c3ccccc3c3ccccc32)cc1)C(=O)[O-].[Na+] [sodium chiglitazar]
Inhibition of in vitro proliferation of skin-derived fibroblasts: had inhibitory activity

Reference: patent publication US20210386705A1, “APPLICATION OF CHIGLITAZAR AND RELATED COMPOUNDS THEREOF” (SHENZHEN CHIPSCREEN BIOSCIENCES CO., LTD., priority 2018, published 2021)
